Counter-ions that a name gives are not always drawn. Like-named read-outs stand apart in the source and are kept apart here.
Key:
[1] = tested on: GPR17+ cells (newly differentiated oligodendrocytes); experiment: In vivo OPC differentiation, GPR17+ cells in brain; details: for In vivo GPR17+ cells, GPR17 Fold Induction (Over Vehicle): adult female C57BL/6 mice, PO or IP, treatment period 1-3 days, entire brain, fold change over vehicle treated animals
PDGFRα = PDGFRα (Homo sapiens (Human), UniProt P16234); experiment: PDGFRα kinase enzyme assay (Promega PDGFRα Kinase Enzyme System, ADP-Glo); format: biochemical; details: 150 uM ATP
Chain of PDGFRα (P16234 24-1089): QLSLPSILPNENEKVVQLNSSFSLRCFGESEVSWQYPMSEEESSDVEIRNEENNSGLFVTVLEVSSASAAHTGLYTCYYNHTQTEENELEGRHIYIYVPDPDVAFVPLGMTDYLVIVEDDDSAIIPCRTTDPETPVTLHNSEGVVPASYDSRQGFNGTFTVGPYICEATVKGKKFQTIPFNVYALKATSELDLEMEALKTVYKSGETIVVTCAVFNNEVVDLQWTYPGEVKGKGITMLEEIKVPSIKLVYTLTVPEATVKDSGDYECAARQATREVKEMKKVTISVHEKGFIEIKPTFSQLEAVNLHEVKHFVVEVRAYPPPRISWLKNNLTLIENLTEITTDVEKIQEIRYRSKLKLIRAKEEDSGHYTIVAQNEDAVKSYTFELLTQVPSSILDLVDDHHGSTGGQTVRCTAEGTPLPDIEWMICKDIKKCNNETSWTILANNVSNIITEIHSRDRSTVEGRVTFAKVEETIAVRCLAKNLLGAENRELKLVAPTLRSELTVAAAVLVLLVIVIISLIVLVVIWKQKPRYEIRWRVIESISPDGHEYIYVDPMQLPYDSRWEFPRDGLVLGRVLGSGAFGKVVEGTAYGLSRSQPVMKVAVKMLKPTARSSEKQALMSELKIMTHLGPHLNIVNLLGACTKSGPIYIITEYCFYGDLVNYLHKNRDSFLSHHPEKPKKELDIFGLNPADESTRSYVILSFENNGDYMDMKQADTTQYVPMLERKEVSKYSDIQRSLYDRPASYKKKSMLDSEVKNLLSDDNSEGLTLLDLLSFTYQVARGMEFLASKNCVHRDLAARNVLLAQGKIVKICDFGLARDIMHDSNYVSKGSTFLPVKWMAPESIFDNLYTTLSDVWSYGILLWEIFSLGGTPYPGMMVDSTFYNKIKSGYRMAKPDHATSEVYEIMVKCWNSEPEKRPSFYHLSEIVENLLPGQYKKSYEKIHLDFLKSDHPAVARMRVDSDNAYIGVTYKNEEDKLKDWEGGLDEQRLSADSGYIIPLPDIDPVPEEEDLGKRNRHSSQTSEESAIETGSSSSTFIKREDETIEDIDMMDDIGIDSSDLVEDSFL
Procedure, shortened: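 Read-out was ADP-Glo: remaining ATP depleted, ADP converted to luminescence and compared with a standard curve.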

[2] = tested on: Oligodendrocyte progenitor cells (OPCs); experiment: In vitro OPC differentiation assay, GPR17 expression (immunocytochemistry); details: 72 hours; for GPR17 Fold Induction (Over Vehicle; 5 μM): primary rat OPCs, 5 μM (10x; final 0.5 μM per method), percent GPR17+ cells as fold change over vehicle; for GPR17 Fold Induction (Over Vehicle; 3 μM): 3 μM (10× concentration, final 0.3 μM), fold change over vehicle
[3] = 20 ng purified PDGFRα, Poly (Glu4Tyr1) substrate, two hours, 11-point dose response, read-out: IC50 Values on PDGFRα Kinase Inhibition
[4] = 11-point dose response, 10,000 nM to 0.169 nM, BLQ = below limit of quantitation, read-out: IC50 Values on PDGFRα Kinase Inhibition, IC50
[5] = Mus musculus, po, 24 h, read-out: GPR17 Fold Induction (Over Vehicle)

| SMILES | IC50 (PDGFRα; [4]) [nM] | GPR17 Fold Induction (Over Vehicle; 3 μM) [2] | also measured |
| --- | --- | --- | --- |
| CCN(CC)CCNC(=O)c1c(C)[nH]c(/C=C2\C(=O)Nc3ccc(-c4csc(-c5ccccc5)n4)cc32)c1C [Amcasertib, amcasertib, reference compound] | – | – | In vivo GPR17+ cells, GPR17 Fold Induction (Over Vehicle) [1]: 1.49 |
| S=C(NCc1ccc2c(c1)OCO2)N1CCN(c2ncnc3c2oc2ccccc23)CC1 [Amuvatinib, amuvatinib, reference compound] | – | – | In vivo GPR17+ cells, GPR17 Fold Induction (Over Vehicle) [1]: 2.18 |
| COc1cc2c(Oc3ccc4[nH]c(C)cc4c3F)ccnc2cc1OCC1(N)CC1 [Anlotinib HCl, anlotinib HCl, reference compound] | – | – | IC50 (PDGFRα; [3]): 1360 nM; In vivo GPR17+ cells, GPR17 Fold Induction (Over Vehicle) [1]: 17.89; GPR17 Fold Induction (Over Vehicle; 5 μM) [2]: 6.58 |
| Nc1nc(Nc2ccc3c(c2)CC[C@@H](N2CCCC2)CC3)nn1-c1cc2c(nn1)-c1ccccc1CCC2 [Bemcentinib, bemcentinib, reference compound] | – | – | IC50 (PDGFRα; [3]): 428 nM; In vivo GPR17+ cells, GPR17 Fold Induction (Over Vehicle) [1]: 1.09; GPR17 Fold Induction (Over Vehicle; 5 μM) [2]: 2.99 |
| COCCOc1ccc2c(c1)ncn2-c1ccc2cccc(N3CCC(N)CC3)c2n1 [CP-673451, reference compound] | – | – | IC50 (PDGFRα; [3]): 115 nM; In vivo GPR17+ cells, GPR17 Fold Induction (Over Vehicle) [1]: 3.52; GPR17 Fold Induction (Over Vehicle; 5 μM) [2]: 2.94 |
| Cn1cc(-c2cnc3c(N4CCN(C(=O)OC(C)(C)C)CC4)cnn3c2)cn1 [Compound 2, tert-butyl 4-[6-(1-methyl-1H-pyrazol-4-yl)pyrazolo[1,5-a]pyrimidin-3-yl]piperazine-1-carboxylate] | 1460 | 1.46 | fold induction at 3.3 mg/kg [1, 5]: 1.13 |
| Cn1cc(-c2ccc3c(N4CCN(C(=O)CC(C)(C)C)CC4)cnn3c2)cn1 [Compound 17, 3-[4-(3,3-dimethylbutanoyl)piperazin-1-yl]-6-(1-methyl-1H-pyrazol-4-yl)pyrazolo[1,5-a]pyridine] | 1600 | 1.14 | fold induction at 3.3 mg/kg [1, 5]: 1.14 |
| Cn1cc(-c2cn3c(N4CCN(c5ncc(Cc6ccccc6)cn5)CC4)cnc3cn2)cn1 [Compound 21, 3-[4-(5-benzylpyrimidin-2-yl)piperazin-1-yl]-6-(1-methyl-1H-pyrazol-4-yl)imidazo[1,2-a]pyrazine] | – | – | fold induction at 150 mg/kg ([1]; Mus musculus, ip, 24 h, read-out: GPR17 Fold Induction (Over Vehicle)): 1.48 |
| Cn1cc(-c2ccc3c(C4CCN(c5ncc(Cc6ccccc6)cn5)CC4)cnn3c2)cn1 [Compound 63, 3-[1-(5-benzylpyrimidin-2-yl)piperidin-4-yl]-6-(1-methyl-1H-pyrazol-4-yl)pyrazolo[1,5-a]pyridine] | 1100 | 8.97 | fold induction at 3 mg/kg [1, 5]: 1.83 |
| Cc1ccc(Cc2cnc(N3CCN(c4cnn5cc(-c6cnn(C)c6)ccc45)CC3)nc2)cc1 [Compound 67, 3-{4-[5-(4-methylbenzyl)pyrimidin-2-yl]piperazin-1-yl}-6-(1-methyl-1H-pyrazol-4-yl)pyrazolo[1,5-a]pyridine] | 784 | 3.41 | fold induction at 10 mg/kg [1, 5]: 9.4 |
| Cn1cc(-c2cnn3c(N4CCN(C(=O)NCc5ccc(C(F)(F)F)cc5)CC4)cnc3c2)cn1 [Compound 295, 4-(7-(1-methyl-1H-pyrazol-4-yl)imidazo[1,2-b]pyridazin-3-yl)-N-(4-(trifluoromethyl)benzyl)piperazine-1-carboxamide] | 31.7 | 8.65 | – |
| Cn1cc(-c2cnn3c(N4CCN(S(=O)(=O)NCc5ccc(C(F)(F)F)cc5)CC4)cnc3c2)cn1 [Compound 296, 4-(7-(1-methyl-1H-pyrazol-4-yl)imidazo[1,2-b]pyridazin-3-yl)-N-(4-(trifluoromethyl)benzyl)piperazine-1-sulfonamide] | 397 | 10.65 | – |
| CCC(O)c1ccc2c(N3CCN(C(=O)OC(C)(C)C)CC3)cnn2c1 (stereo not drawn) [Compound 298, tert-butyl 4-(6-(1-hydroxypropyl)pyrazolo[1,5-a]pyridin-3-yl)piperazine-1-carboxylate] | > 10000 | 1.56 | – |
| Cn1cc(-c2ccc3c(C(O)CCc4ncc(Cc5ccccc5)cn4)cnn3c2)cn1 (stereo not drawn) [Compound 299, 3-(5-benzylpyrimidin-2-yl)-1-(6-(1-methyl-1H-pyrazol-4-yl)pyrazolo[1,5-a]pyridin-3-yl)propan-1-ol] | > 10000 | 1.43 | – |
| Cn1cc(-c2ccc3c(N4CC=C(c5ncc(Cc6ccccc6)cn5)CC4)cnn3c2)cn1 [Compound 300, 3-(4-(5-benzylpyrimidin-2-yl)-3,6-dihydropyridin-1 (2H)-yl)-6-(1-methyl-1H-pyrazol-4-yl)pyrazolo[1,5-a]pyridine] | 3550 | 1.24 | – |
| Cn1cc(-c2ccc3c(N4CCN(c5ncc(Cc6ncon6)cn5)CC4)cnn3c2)cn1 [Compound 301, 3-((2-(4-(6-(1-methyl-1H-pyrazol-4-yl)pyrazolo[1,5-a]pyridin-3-yl)piperazin-1-yl)pyrimidin-5-yl)methyl)-1,2,4-oxadiazole] | > 10000 | 2.96 | – |

| SMILES | IC50 (PDGFRα; [4]) [nM] | GPR17 Fold Induction (Over Vehicle; 3 μM) [2] | also measured |
| --- | --- | --- | --- |
| Cn1cc(-c2ccc3c(N4CCN(c5ncc(Cc6ccsc6)cn5)CC4)cnn3c2)cn1 [Compound 302, 6-(1-methyl-1H-pyrazol-4-yl)-3-(4-(5-(thiophen-3-ylmethyl)pyrimidin-2-yl)piperazin-1-yl)pyrazolo[1,5-a]pyridine] | 137 | 8.86 | – |
| Cn1cc(-c2ccc3c(N4CCN(c5cnc(Cc6ccccc6)cn5)CC4)cnn3c2)cn1 [Compound 303, 3-(4-(5-benzylpyrazin-2-yl)piperazin-1-yl)-6-(1-methyl-1H-pyrazol-4-yl)pyrazolo[1,5-a]pyridine] | > 10000 | 2.52 | – |
| CC(C)(C)OC(=O)N1CCN(c2cnn3cc(C4CCOC4)ccc23)CC1 (stereo not drawn) [Compound 304, tert-butyl 4-(6-(tetrahydrofuran-3-yl)pyrazolo[1,5-a]pyridin-3-yl)piperazine-1-carboxylate] | > 10000 | 1.77 | – |
| Cn1cc(-c2ccc3c(N4CCN(c5nnc(Cc6ccccc6)s5)CC4)cnn3c2)cn1 [Compound 306, 2-benzyl-5-(4-(6-(1-methyl-1H-pyrazol-4-yl)pyrazolo[1,5-a]pyridin-3-yl)piperazin-1-yl)-1,3,4-thiadiazole] | 2.31 | 4.37 | – |
| Cn1cc(-c2ccc3c(N4CCN(C(=O)OC5CC(F)(F)C5)CC4)cnn3c2)cn1 [Compound 307, 3,3-difluorocyclobutyl 4-[6-(1-methyl-1H-pyrazol-4-yl)pyrazolo[1,5-a]pyridin-3-yl]piperazine-1-carboxylate] | 2150 | 4.20 | – |
| Cn1cc(-c2ccc3c(N4CCN(C(=O)OCC5CC(F)(F)C5)CC4)cnn3c2)cn1 [Compound 308, (3,3-difluorocyclobutyl)methyl 4-[6-(1-methyl-1H-pyrazol-4-yl)pyrazolo[1,5-a]pyridin-3-yl]piperazine-1-carboxylate] | 2110 | 3.67 | – |
| CC1CC(COC(=O)N2CCN(c3cnn4cc(-c5cnn(C)c5)ccc34)CC2)C1 (stereo not drawn) [Compound 310, (3-methylcyclobutyl)methyl 4-[6-(1-methyl-1H-pyrazol-4-yl)pyrazolo[1,5-a]pyridin-3-yl]piperazine-1-carboxylate] | > 10000 | 4.86 | – |
| Cn1cc(-c2ccc3c(N4CCN(C(=O)O[C@@H]5CCc6cc(Cl)ccc65)CC4)cnn3c2)cn1 [Compound 314, (1R)-5-chloro-2,3-dihydro-1H-inden-1-yl 4-[6-(1-methyl-1H-pyrazol-4-yl)pyrazolo[1,5-a]pyridin-3-yl]piperazine-1-carboxylate] | 7550 | 1.64 | – |
| COC(=O)[C@@]1(O)C[C@H]2O[C@]1(C)n1c3ccccc3c3c4c(c5c6ccccc6n2c5c31)C(=O)NC4 [Compound K252a, K252a, reference compound] | – | – | IC50 (PDGFRα; [3]): 427 nM; GPR17 Fold Induction (Over Vehicle; 5 μM) [2]: 2.53 |
| Cc1ccc(F)c(NC(=O)Nc2ccc(-c3cccc4[nH]nc(N)c34)cc2)c1 [Linifanib (ABT-869), linifanib, reference compound] | – | – | IC50 (PDGFRα; [3]): 1210 nM; GPR17 Fold Induction (Over Vehicle; 5 μM) [2]: 4.68 |
| CN(C[C@@H]1COCCO1)S(=O)(=O)Nc1ccc2ccc3ncc(-c4cnn(C)c4)cc3c(=O)c2c1 [MK-2461, reference compound] | – | – | In vivo GPR17+ cells, GPR17 Fold Induction (Over Vehicle) [1]: 1.47 |
| Cc1[nH]c(/C=C2\C(=O)Nc3ccccc32)c(C)c1CCC(=O)O [Orantinib, orantinib, reference compound] | – | – | In vivo GPR17+ cells, GPR17 Fold Induction (Over Vehicle) [1]: 2.43 |
| Cc1ccccc1C(OCCN(C)C)c1ccccc1 (stereo not drawn) [Orphenadrine] | – | – | In vivo GPR17+ cells, GPR17 Fold Induction (Over Vehicle) [1]: 1.07 |
| Cc1[nH]c(/C=C2\C(=O)Nc3ccc(F)cc32)c(C)c1C(=O)NC[C@H](O)CN1CCOCC1 [SU-14813, reference compound] | – | – | In vivo GPR17+ cells, GPR17 Fold Induction (Over Vehicle) [1]: 2.63; GPR17 Fold Induction (Over Vehicle; 5 μM) [2]: 4.12 |
| COc1ccc(-c2cncc(N[C@@H](C)c3cccc(NC(=O)c4cncc(C)c4)c3)n2)cc1OC [Seralutinib, seralutinib, reference compound] | – | – | IC50 (PDGFRα; [3]): 228 nM; GPR17 Fold Induction (Over Vehicle; 5 μM) [2]: 3.53 |

Reference: patent US20250129067A1 (Progentos Therapeutics, Inc., priority 2021, published 2025)
